Results taken from publication PMC6010047, “Design, synthesis and biological evaluation of novel hydroxy-phenyl-1H-benzimidazoles as radical scavengers and UV-protective agents” (Journal of Enzyme Inhibition and Medicinal Chemistry, 2017).
Read-outs that look alike come from different tables or passages of the source.

Legend:
NCTC-2544 cells [1] = tested on: NCTC-2544 cells
Method: (§1) An immortalized, nontumorigenic cell line of human keratinocytes (NCTC-2544) was grown in a DMEM medium (Sigma-Aldrich Milan, Italy), supplemented with 115 units/mL of penicillin G, 115 μg/mL streptomycin, and 10% fetal calf serum (Invitrogen, Milan, Italy). Individual wells of a 96-well tissue culture microtiter plates (Falcon, Becton–Dickinson) were inoculated with 100 μL of complete medium containing 5 × 10^3 NCTC-2544. The plates were incubated at 37 °C in a humidified (5% CO2) incubator for 18 h prior to the experiments.
(§2) After medium removal, 100 μL of the drug solution, dissolved in DMSO and diluted in DMEM medium, was added to each well, incubated at 37 °C for 72 h. Final DMSO concentration never exceeded 0.5%. Cell viability was assayed by the MTT (3–(4,5-dimethylthiazol-2-yl)-2,5 diphenyl tetrazolium bromide) test as previously described by Mosmann[27].
(§3) The tests were conducted using a specific cell line of human keratinocytes (NCTC-2544). To assess cell viability, in the presence of the study compounds, before and after the irradiation, the MTT assay was performed[27]. The cytotoxicity was checked after 72 h from the incubation of the keratinocytes with compounds; moreover, the same experiments were performed in the presence of the parent PBSA.

NCTC-2544 cells [2] = assay: Cytotoxicity, MTT test, 72 h; conditions: read-out: IC50 cytotoxicity; NCTC-2544 human keratinocytes, 72 h, MTT
Method: as §1, §2, §3

[3] = Photostability of formulations under solar simulator, HPLC; type: physicochemical; conditions: 3% formulation; for Residual product (photostability): 2 mg/cm^2, solar simulator 1 h, HPLC
Method: HPLC analysis was performed using an Agilent 1100 Series HPLC System equipped with a G1315A DAD, and with a Hydro-RP C18 Synergi 80 Å column (4.6 × 150 mm, 4 μm) from Phenomenex, maintained at 25 °C during all the time of the analysis. The mobile phase consisted of water (0.01 M H3PO4) (solvent A) and acetonitrile (0.01 M H3PO4) (solvent B). • PBSA and 3: the determination was carried out in isocratic condition, A: 91%/B: 9%. Separation was monitored with absorbance detection at λmax of the molecule ±8 nm. The flow rate was 1.0 mL/min. • […]: the determination was carried out in isocratic condition, A: 84%/B: 16%. Separation was monitored with absorbance detection at λmax of the molecule ±8 nm. The flow rate was 1.0 mL/min
The solar simulator emission was maintained at 500 W/m^2. A portion of cosmetic formulation containing the sunscreen molecule (3%, w/w) was transferred onto the bottom of a beaker to gain a cosmetic mount of 2 mg/cm^2 and then was irradiated for 1 h with the solar simulator. After irradiation the beaker was removed and its content quantitatively transferred into a 50 mL calibrated flask with methanol and the remaining sunscreen concentration was determined by HPLC as described above. All samples were protected from light both before and after irradiation, the degree of photodegradation was evaluated by comparing the areas of the irradiated samples, with those of the unirradiated preparations.
Stability and photostability tests were performed only on compounds that as provided with the best antioxidant capacity together with a good photoprotection activity (i.e. 3, and 12). At first, the effective concentration of filtering molecules was verified in the formulation by HPLC. Samples of the formulations (2 mg/cm^2) were spread on a PMMA plate, for each compound including PBSA, and placed under a solar simulator for one hour before repeating HPLC analysis.

| Molecule | Residual product (photostability) [3] | further results |
| --- | --- | --- |
| 2-(2,4-Dihydroxy-phenyl)-1H-benzimidazole [Compound 9] | – | IC50 (NCTC-2544 cells [1]): > 50 µM |
| 2-(2-Hydroxy-phenyl)-1H-benzimidazole [Compound 10] | – | IC50 (NCTC-2544 cells [2]): > 50 µM |
| O=S(=O)(O)c1ccc2[nH]c(-c3ccc(O)c(O)c3)nc2c1 [Compound 3, 2-(3,4-Dihydroxy-phenyl)-1H-benzimidazole-5-sulfonic acid] | 94.9% ± 0.8% | – |
| O=C(O)c1ccc2[nH]c(-c3ccc(O)c(O)c3)nc2c1 [Compound 12, 2-(3,4-Dihydroxy-phenyl)-1H-benzimidazole-5-carboxylic acid] | 98.4% ± 0.9% | degradation rate (photostability) ([3]; solar simulator 1 h): less than 2% |
| O=S(=O)(O)c1ccc2[nH]c(-c3ccccc3)nc2c1 [PBSA, 2-phenyl-1H-benzimidazole-5-sulfonic acid, reference compound] | 96.7% ± 1.8% | – |
